# Legend:
# cells = settings: Homo sapiens, MRC-5 SV2, 72 h
# Description: (§1) Cytotoxicity against human MRC5 SV2 cells assessed as reduction in cell viability incubated for 3 days by fluorimetry
# [1] = test system: Trypanosoma brucei rhodesiense; experiment: microbe, parasite or virus in culture; settings: STIB900, 72 h
# Description: Antiprotozoal activity against Trypanosoma brucei rhodesiense STIB900 trypomastigotes incubated for 72 hrs by resazurin dye based fluorimetric analysis
# in vitro [2] = settings: mouse, peritoneal macrophages
# Description: (§2) Cytotoxicity against mouse peritoneal Macrophage cells assessed as reduction in cell viability incubated for 3 days by fluorimetry
# physchem = settings: buffer, pH 7.4
# Description: Lipophilicity, logD of compound at pH 7.4 by HPLC analysis
# in vitro [3] = settings: human, liver microsomes
# Description: Metabolic stability in human liver microsomes assessed as intrinsic clearance at 0.5 uM incubated for 30 mins by LC-MS/MS analysis
# in vitro [4] = settings: PAMPA
# Description: Effective permeability of compound by PAMPA assay
# Trypanosoma cruzi = experiment: microbe, parasite or virus in culture; settings: Tulahuen CL2, MRC-5 SV2, 168 h
# Description: Antitrypanosomal activity against Trypanosoma cruzi Tulahuen CL2 amastigotes infected in human MRC5 SV2 cells incubated for 7 days by chlorophenol red beta-D-galactopyranoside substrate based spectrophotometric assay
# Trypanosoma brucei = experiment: microbe, parasite or virus in culture; settings: Squib 427, 72 h
# Description: Antitrypanosomal activity against Trypanosoma brucei Squib 427 assessed as reduction in parasite growth incubated for 72 hrs by resazurin dye based fluorimetric analysis
# Leishmania infantum = experiment: microbe, parasite or virus in culture; settings: for IC50: MHOM/MA(BE)/67/ITMAP263, 120 h; for IC90: MHOM/MA(BE)/67/ITMAP263, in Mus musculus, 120 h
# Description: Antileishmanial activity against amastigote stage of Leishmania infantum MHOM/MA(BE)/67/ITMAP263 infected in mouse peritoneal macrophage assessed as parasite growth inhibition incubated for 5 days by Giemsa staining based assay
# in vitro [5] = settings: mouse, liver microsomes
# Description: Metabolic stability in mouse liver microsomes assessed as intrinsic clearance at 0.5 uM incubated for 30 mins by LC-MS/MS analysis
# in vitro [6] = settings: human, MRC5 SV2 cells
# Description: as §1
# Macrophage = experiment: cells; settings: Mus musculus, 72 h
# Description: as §2
# in vitro [7] = settings: mouse, liver microsomes; remark: listed apart in the source
# Description: Metabolic stability in mouse liver microsomes assessed as fraction unbound at 0.5 uM incubated for 30 mins by LC-MS/MS analysis
# in vitro [8] = settings: human, MRC5 SV2 cells; remark: listed apart in the source
# Description: Selectivity index, ratio of IC50 for human MRC5 SV2 cells to IC50 for Trypanosoma cruzi Tulahuen CL2 amastigotes infected in human MRC5 SV2 cells
Compound,IC50 (cells),IC50 [1],IC90 [1],IC90 at 72 h (in vitro [2]),logD (physchem),"CLint scaled at 0.5 h, 0.5 µM (in vitro [3])","microsomal CLint at 0.5 h, 0.5 µM (in vitro [3])",Papp (in vitro [4]),IC50 (Trypanosoma cruzi),IC90 (Trypanosoma cruzi),IC50 (Trypanosoma brucei),IC90 (Trypanosoma brucei),IC50 (Leishmania infantum),IC90 (Leishmania infantum),"CLint scaled at 0.5 h, 0.5 µM (in vitro [5])","microsomal CLint at 0.5 h, 0.5 µM (in vitro [5])",IC90 at 72 h (in vitro [6]),IC50 (Macrophage),"fraction unbound at 0.5 h, 0.5 µM (in vitro [7])",selectivity ratio (in vitro [8])
Cc1nc(C)c(C(=O)N2CCCC(c3cc4ncccc4[nH]3)C2)o1 (stereo unspecified),64 µM,64 µM,64 µM,64 µM,2.15,< 31.2 mL/min/kg,< 23 µL/min/mg,1.56 to 2.14 ×10⁻⁶ cm/s,64 µM,64 µM,64 µM,64 µM,64 µM,64 µM,314 mL/min/kg,78.8 µL/min/mg,64 µM,64 µM,0.801,
COc1ccc2[nH]c(C3CCCN(C(=O)c4ccc(F)cc4)C3)cc2n1 (stereo unspecified),64 µM,19.6 µM,30.6 µM,64 µM,3.39,35 mL/min/kg,26.4 µL/min/mg,14.4 ×10⁻⁶ cm/s,64 µM,64 µM,64 µM,64 µM,64 µM,64 µM,593 mL/min/kg,151 µL/min/mg,64 µM,64 µM,0.815,
CCN(CCC(=O)Nc1cccnc1)C(=O)c1ccc(F)cc1,64 µM,64 µM,64 µM,64 µM,2.03,< 43.3 mL/min/kg,< 23 µL/min/mg,5.23 ×10⁻⁶ cm/s,64 µM,64 µM,64 µM,64 µM,64 µM,64 µM,140 mL/min/kg,25.1 µL/min/mg,64 µM,64 µM,0.571,
CC(C)(C)OC(=O)N1CCCC(c2cn3nc(Cl)ccc3n2)C1 (stereo unspecified),64 µM,64 µM,64 µM,64 µM,4.04,> 200 mL/min/kg,185 µL/min/mg,22.4 ×10⁻⁶ cm/s,29.5 µM,60.3 µM,64 µM,64 µM,64 µM,64 µM,> 11300 mL/min/kg,3540 µL/min/mg,64 µM,64 µM,,2.15
COc1ccc(C(=O)N2CCCC(c3cc4ncccc4[nH]3)C2)cc1OC (stereo unspecified),64 µM,64 µM,64 µM,64 µM,2.61,< 32.2 mL/min/kg,< 23 µL/min/mg,1.58 ×10⁻⁶ cm/s,8.96 µM,64 µM,64 µM,64 µM,64 µM,64 µM,564 mL/min/kg,137 µL/min/mg,64 µM,64 µM,,7.15
O=C(c1ccccc1)N1CCN(c2nc3ccccc3s2)CC1,64 µM,64 µM,64 µM,64 µM,3.4,,,40.4 ×10⁻⁶ cm/s,64 µM,64 µM,64 µM,64 µM,64 µM,64 µM,24700 mL/min/kg,4010 µL/min/mg,64 µM,64 µM,0.518,
Cc1nc(C)c(C(=O)N2CCCC(c3cc4ncccc4[nH]3)C2)s1 (stereo unspecified),64 µM,64 µM,64 µM,64 µM,2.3,29.5 mL/min/kg,26.2 µL/min/mg,2.88 ×10⁻⁶ cm/s,64 µM,64 µM,64 µM,64 µM,64 µM,64 µM,774 mL/min/kg,233 µL/min/mg,64 µM,64 µM,0.96,
O=C(c1ccccc1)N1CCCC(c2nc3ncccc3[nH]2)C1 (stereo unspecified),64 µM,64 µM,64 µM,64 µM,1.97,< 35 mL/min/kg,< 23 µL/min/mg,2.43 ×10⁻⁶ cm/s,64 µM,64 µM,64 µM,64 µM,64 µM,64 µM,763 mL/min/kg,173 µL/min/mg,64 µM,64 µM,0.723,
O=C(c1ccccc1)N1CCCC(c2cn3cccnc3n2)C1 (stereo unspecified),64 µM,64 µM,64 µM,64 µM,1.71,< 31.7 mL/min/kg,< 23 µL/min/mg,2.75 ×10⁻⁶ cm/s,64 µM,64 µM,64 µM,64 µM,64 µM,64 µM,338 mL/min/kg,127 µL/min/mg,64 µM,64 µM,0.805,
O=C(OCc1ccccc1)N1CCCC(c2cn3cccnc3n2)C1 (stereo unspecified),64 µM,55.4 µM,64 µM,64 µM,,,,,34.5 µM,64 µM,64 µM,64 µM,64 µM,64 µM,,,64 µM,64 µM,,1.88
O=C(c1ccc(F)cc1)N1CC=C(c2cc3ncccc3[nH]2)CC1,64 µM,39.4 µM,64 µM,64 µM,3.06,≥ 38 mL/min/kg,35.2 µL/min/mg,0.907 ×10⁻⁶ cm/s,2.54 µM,64 µM,64 µM,64 µM,39.1 µM,58.5 µM,≥ 623 mL/min/kg,195 µL/min/mg,64 µM,64 µM,,25.1
O=C(c1cc(C2CC2)on1)N1CCCC(c2cc3ncccc3[nH]2)C1 (stereo unspecified),32 µM,25.2 µM,32 µM,32 µM,,32.7 mL/min/kg,,,3.92 µM,7.5 µM,32 µM,32 µM,32 µM,32 µM,1830 mL/min/kg,,32 µM,32 µM,,8.15
COc1cccc(C(=O)N2CCCC(c3cc4ncccc4[nH]3)C2)c1OC (stereo unspecified),32 µM,31 µM,32 µM,32 µM,,110 mL/min/kg,,,4.03 µM,7.52 µM,32 µM,32 µM,32 µM,32 µM,2600 mL/min/kg,,32 µM,32 µM,,8
COc1ccc2cc(C(=O)N3CCCC(c4cc5ncccc5[nH]4)C3)[nH]c2c1 (stereo unspecified),32 µM,32 µM,32 µM,32 µM,,1620 mL/min/kg,,,4.03 µM,7.62 µM,32 µM,32 µM,32 µM,32 µM,1000 mL/min/kg,,32 µM,32 µM,,7.95
N#Cc1ccc(C(=O)N2CCCC(c3cc4ncccc4[nH]3)C2)cc1 (stereo unspecified),64 µM,64 µM,64 µM,64 µM,2.37,51.5 mL/min/kg,< 23 µL/min/mg,0.379 ×10⁻⁶ cm/s,25.6 µM,59 µM,64 µM,64 µM,64 µM,64 µM,,,64 µM,64 µM,,2.49
O=C(c1ccc(F)cc1)N1CCC(c2cc3ncccc3[nH]2)C1 (stereo unspecified),64 µM,43.9 µM,64 µM,64 µM,2.62,68.7 mL/min/kg,44.6 µL/min/mg,1.58 ×10⁻⁶ cm/s,8.99 µM,64 µM,64 µM,64 µM,64 µM,64 µM,5590 mL/min/kg,1230 µL/min/mg,64 µM,64 µM,,7.15
Cc1ccoc1C(=O)N1CCCC(c2cc3ncccc3[nH]2)C1 (stereo unspecified),64 µM,64 µM,64 µM,64 µM,2.86,167 mL/min/kg,129 µL/min/mg,3.09 ×10⁻⁶ cm/s,21.3 µM,55.5 µM,64 µM,64 µM,64 µM,64 µM,6690 mL/min/kg,1750 µL/min/mg,64 µM,64 µM,,3
